Measurements taken from patent US20250263405A1, “HISTONE DEACETYLASE 6 INHIBITOR COMPOUNDS AND USES THEREOF” (VALO HEALTH, INC., priority 2021, published 2025).

biological target: HDAC6 (Homo sapiens (Human), UniProt Q9UBN7); test: HDAC6 TR-FRET displacement assay; assay type: binding; conditions: displacement of fluorescein labeled tracer from HDAC6; 2 nM HDAC6, 1 nM tracer, 0.5 nM Tb-anti-GST antibody; 30 min pre-incubation, 6 hours at 25° C.
From the text: HDAC6 and Tb-anti-GST antibody were purchased from Signal Chem (cat #PC124) and Cisbio (cat #61GSTTAH), respectively. HEPES, pH 7.5 was purchased from Teknova (Cat #H1575). All other buffer components, NaCl (cat #S5150), KCl (cat #60121), Triton X-100 (cat #T9284), GSH (cat #G4251), BGG (cat #G5009), and BSA (cat #A2153) were purchased from SIGMA.
Displacement of fluorescein labeled tracer 2-(6-hydroxy-3-oxo-3H-xanthen-9-yl)-5-({[5-(4-{[7-(hydroxycarbamoyl)-2H,3H,4H,5H-thieno[2,3-f][1,4]oxazepine-4-carbonyl]amino}phenoxy)pentyl]carbamothioyl}amino)benzoic acid from HDAC6 was measured in vitro using a TR-FRET assay. The assays were performed in 1536-well plates in a total volume of 6 μL in assay buffer consisting of 50 mM HEPES pH 7.5, 50 mM NaCl, 50 mM KCl, 0.01% Triton X-100, 0.5 mM GSH, 0.03% BGG, 0.01% BSA.
For concentration response curves (IC50 determination), Compounds were serially diluted 3-fold from 2 mM highest concentration to generate a 10-point concentration gradient. To perform the assay, 30 nL of compound gradient solutions were transferred to the assay plate using the ECHO acoustic dispenser to achieve a final concentration range of 10 μM to 0.000508 uM in 6 μL reaction. 3 μL of HDAC6 in assay buffer were added to the assay plates and pre-incubate at room temp. for 30 mins. After pre-incubation, 3 μL of the tracer and TB-anti-GST antibody mix were added to the assay plates. The final concentrations of HDAC6, tracer, and TB-anti-GST antibody for each assay are 2 nM, 1 nM, and 0.5 nM, respectively. Binding reactions were equilibrated at 25° C. for an additional 6 hours, then read in endpoint mode on the BMG PheraStar (BMG labtech) equipped with a 337-520-490 optical module. The ratio of the 520/490 nm emission was calculated to determine the relative amounts of HDAC6 and tracer complex residue in each well.
The percent inhibition of HDAC6 (IC50) was calculated according to the following equation.
As set forth in Table 1, “A” indicates an HDAC6 IC50 value of less than 200 nM; “B” indicates an HDAC6 IC50 value of greater than or equal to 200 nM and less than 500 nM; and “C” indicates an HDAC6 IC50 value of greater than or equal to 500 nM and less than 5 μM.

Chain of HDAC6 (Q9UBN7 whole entry): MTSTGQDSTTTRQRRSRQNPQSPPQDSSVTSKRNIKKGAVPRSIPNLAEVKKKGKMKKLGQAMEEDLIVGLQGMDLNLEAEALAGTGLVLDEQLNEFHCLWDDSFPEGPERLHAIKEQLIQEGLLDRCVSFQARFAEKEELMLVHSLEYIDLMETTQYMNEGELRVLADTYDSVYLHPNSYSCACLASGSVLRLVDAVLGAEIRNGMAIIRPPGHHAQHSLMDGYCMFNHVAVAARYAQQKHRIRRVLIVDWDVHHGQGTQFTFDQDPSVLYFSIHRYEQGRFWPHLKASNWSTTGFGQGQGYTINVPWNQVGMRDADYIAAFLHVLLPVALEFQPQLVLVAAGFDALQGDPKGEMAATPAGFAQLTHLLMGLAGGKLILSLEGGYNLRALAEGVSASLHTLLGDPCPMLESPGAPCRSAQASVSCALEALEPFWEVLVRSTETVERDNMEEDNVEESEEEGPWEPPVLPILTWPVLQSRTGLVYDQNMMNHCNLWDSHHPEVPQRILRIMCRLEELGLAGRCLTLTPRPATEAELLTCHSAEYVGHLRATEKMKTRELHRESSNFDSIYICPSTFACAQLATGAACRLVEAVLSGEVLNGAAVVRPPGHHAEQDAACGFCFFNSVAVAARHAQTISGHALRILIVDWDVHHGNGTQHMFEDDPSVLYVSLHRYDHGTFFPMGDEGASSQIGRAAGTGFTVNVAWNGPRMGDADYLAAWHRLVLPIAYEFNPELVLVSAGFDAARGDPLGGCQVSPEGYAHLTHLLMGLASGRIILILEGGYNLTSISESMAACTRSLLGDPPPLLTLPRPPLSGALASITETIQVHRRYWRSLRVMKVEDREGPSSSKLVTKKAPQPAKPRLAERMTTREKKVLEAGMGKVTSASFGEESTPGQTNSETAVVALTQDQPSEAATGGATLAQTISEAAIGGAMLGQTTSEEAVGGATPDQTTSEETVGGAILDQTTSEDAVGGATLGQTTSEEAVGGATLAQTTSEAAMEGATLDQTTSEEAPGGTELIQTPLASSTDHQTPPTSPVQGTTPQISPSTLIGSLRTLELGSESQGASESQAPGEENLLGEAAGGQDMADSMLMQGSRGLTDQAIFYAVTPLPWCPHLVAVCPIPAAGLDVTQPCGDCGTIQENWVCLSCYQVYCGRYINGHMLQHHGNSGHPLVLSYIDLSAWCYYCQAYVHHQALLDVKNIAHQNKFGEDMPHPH

`CC1(C(=O)N2CCOc3cc(-c4noc(C(F)(F)F)n4)cc(F)c3C2)CCOCC1` [Compound 28, 6-fluoro-4-[(4-methyloxan-4-yl)carbonyl]-8-[5-(trifluoromethyl)-1,2,4-oxadiazol-3-yl]-3,5-dihydro-2H-1,4-benzoxazepine] and `C[C@H]1COc2cc(-c3noc(C(F)(F)F)n3)cc(F)c2CN1C(=O)C1(C)CCOCC1` [Compound 18, (3S)-6-fluoro-3-methyl-4-[(4-methyloxan-4-yl)carbonyl]-8-[5-(trifluoromethyl)-1,2,4-oxadiazol-3-yl]-3,5-dihydro-2H-1,4-benzoxazepine] cannot be ordered by IC50: under 200 nM for the first, under 200 nM for the second.

`C[C@H]1COc2cc(-c3noc(C(F)(F)F)n3)cc(F)c2CN1C(=O)CCN(C)C` [Compound 42, (S)-3-(dimethylamino)-1-(6-fluoro-3-methyl-8-(5-(trifluoromethyl)-1,2,4-oxadiazol-3-yl)-2,3-dihydrobenzo[f][1,4]oxazepin-4(5H)-yl)propan-1-one] and `C[C@H]1COc2cc(-c3noc(C(F)(F)F)n3)cc(F)c2CN1C(=O)CN(C)C` [Compound 43, (S)-2-(dimethylamino)-1-(6-fluoro-3-methyl-8-(5-(trifluoromethyl)-1,2,4-oxadiazol-3-yl)-2,3-dihydrobenzo[f][1,4]oxazepin-4(5H)-yl)ethan-1-one] fall in the same range of IC50: 200 to 500 nM for the first, 200 to 500 nM for the second.

First: FC(F)(F)c1nc(-c2ccc3c(c2)OCCN(c2nc4ccccc4[nH]2)C3)no1 [Compound 51, 4-(1H-benzo[d]imidazol-2-yl)-8-(5-(trifluoromethyl)-1,2,4-oxadiazol-3-yl)-2,3,4,5-tetrahydrobenzo[f][1,4]oxazepine]
Second: CC(C)C(=O)N1CCOc2cc(-c3noc(C(F)(F)F)n3)ccc2C1 [Compound 53, 2-methyl-1-{8-[5-(trifluoromethyl)-1,2,4-oxadiazol-3-yl]-3,5-dihydro-2H-1,4-benzoxazepin-4-yl}propan-1-one]
The IC50 of the first is lower: under 200 nM for the first, 200 to 500 nM for the second. The first is the more potent here.

`COC[C@H]1COc2cc(-c3noc(C(F)(F)F)n3)ccc2CN1C(=O)C(C)(C)C` [Compound 27, 1-[(3S)-3-(methoxymethyl)-8-[5-(trifluoromethyl)-1,2,4-oxadiazol-3-yl]-3,5-dihydro-2H-1,4-benzoxazepin-4-yl]-2,2-dimethylpropan-1-one] and `C[C@H]1COc2cc(-c3noc(C(F)(F)F)n3)ccc2CN1C(=O)C(C)(C)C` [Compound 17, 2,2-dimethyl-1-[(3S)-3-methyl-8-[5-(trifluoromethyl)-1,2,4-oxadiazol-3-yl]-3,5-dihydro-2H-1,4-benzoxazepin-4-yl]propan-1-one] cannot be ordered by IC50: under 200 nM for the first, under 200 nM for the second.

`CC(C)C(=O)N1Cc2c(F)cc(-c3noc(C(F)(F)F)n3)cc2OC[C@@H]1C` [Compound 38, 1-[(3S)-6-fluoro-3-methyl-8-[5-(trifluoromethyl)-1,2,4-oxadiazol-3-yl]-3,5-dihydro-2H-1,4-benzoxazepin-4-yl]-2-methylpropan-1-one] and `C[C@H]1COc2cc(-c3noc(C(F)(F)F)n3)cc(F)c2CN1C(=O)C(F)(F)F` [Compound 24, (S)-2,2,2-trifluoro-1-(6-fluoro-3-methyl-8-(5-(trifluoromethyl)-1,2,4-oxadiazol-3-yl)-2,3-dihydrobenzo[f][1,4]oxazepin-4(5H)-yl)ethan-1-one] cannot be ordered by IC50: under 200 nM for the first, under 200 nM for the second.

`CC1(C(=O)N2Cc3ccc(-c4noc(C(F)(F)F)n4)cc3OCC23CC3)COC1` [Compound 47, (3-methyloxetan-3-yl)(8-(5-(trifluoromethyl)-1,2,4-oxadiazol-3-yl)-2H-spiro[benzo[f][1,4]oxazepine-3,1′-cyclopropan]-4(5H)-yl)methanone] and `CC1(C(=O)N2CCOc3cc(-c4noc(C(F)(F)F)n4)ccc3C2)COC1` [Compound 52, 4-[(3-methyloxetan-3-yl)carbonyl]-8-[5-(trifluoromethyl)-1,2,4-oxadiazol-3-yl]-3,5-dihydro-2H-1,4-benzoxazepine] fall in the same range of IC50: 200 to 500 nM for the first, 200 to 500 nM for the second.

First: CC1Oc2cc(-c3noc(C(F)(F)F)n3)ccc2CNC1=O (centres unmarked) [Compound 50, 2-methyl-8-[5-(trifluoromethyl)-1,2,4-oxadiazol-3-yl]-4,5-dihydro-2H-1,4-benzoxazepin-3-one]
Second: C[C@H]1COc2cc(-c3noc(C(F)(F)F)n3)ccc2CN1S(C)(=O)=O [Compound 33, (S)-3-methyl-4-(methylsulfonyl)-8-(5-(trifluoromethyl)-1,2,4-oxadiazol-3-yl)-2,3,4,5-tetrahydrobenzo[f][1,4]oxazepine]
The IC50 of the first is lower: under 200 nM for the first, 200 to 500 nM for the second. The first is the more potent here.

First: CC(C)(C)OC(=O)N1Cc2ccc(-c3noc(C(F)(F)F)n3)cc2OC[C@@H]1c1ccccc1 [Compound 8, tert-butyl (S)-3-phenyl-8-(5-(trifluoromethyl)-1,2,4-oxadiazol-3-yl)-2,3-dihydrobenzo[f][1,4]oxazepine-4(5H)-carboxylate]
Second: COCC1(C(=O)N2Cc3ccc(-c4noc(C(F)(F)F)n4)cc3OC[C@@H]2c2ccccc2)COC1 [Compound 7, (3S)-4-{[3-(methoxymethyl)oxetan-3-yl]carbonyl}-3-phenyl-8-[5-(trifluoromethyl)-1,2,4-oxadiazol-3-yl]-3,5-dihydro-2H-1,4-benzoxazepine]
The IC50 of the first is higher: 500 to 5000 nM for the first, under 200 nM for the second.

`C[C@H]1COc2cc(-c3noc(C(F)(F)F)n3)cc(F)c2CN1C(=O)c1ccccc1` [Compound 44, (3S)-4-benzoyl-6-fluoro-3-methyl-8-[5-(trifluoromethyl)-1,2,4-oxadiazol-3-yl]-3,5-dihydro-2H-1,4-benzoxazepine] and `C[C@H]1COc2cc(-c3noc(C(F)(F)F)n3)cc(F)c2CN1C(=O)c1ccncc1` [Compound 49, (3S)-6-fluoro-3-methyl-4-[(pyridin-4-yl)carbonyl]-8-[5-(trifluoromethyl)-1,2,4-oxadiazol-3-yl]-3,5-dihydro-2H-1,4-benzoxazepine] fall in the same range of IC50: 200 to 500 nM for the first, 200 to 500 nM for the second.

`C[C@H]1COc2cc(-c3noc(C(F)(F)F)n3)cc(F)c2CN1C(=O)C1CCOCC1` [Compound 39, (3S)-6-fluoro-3-methyl-4-[(oxan-4-yl)carbonyl]-8-[5-(trifluoromethyl)-1,2,4-oxadiazol-3-yl]-3,5-dihydro-2H-1,4-benzoxazepine] and `COCC1(C(=O)N2Cc3c(F)cc(-c4noc(C(F)(F)F)n4)cc3OC[C@@H]2C)COC1` [Compound 30, (3S)-6-fluoro-4-{[3-(methoxymethyl)oxetan-3-yl]carbonyl}-3-methyl-8-[5-(trifluoromethyl)-1,2,4-oxadiazol-3-yl]-3,5-dihydro-2H-1,4-benzoxazepine] cannot be ordered by IC50: under 200 nM for the first, under 200 nM for the second.

`O=C(C1CCOCC1)N1CCOc2cc(-c3noc(C(F)(F)F)n3)ccc2C1` [Compound 54, 4-[(oxan-4-yl)carbonyl]-8-[5-(trifluoromethyl)-1,2,4-oxadiazol-3-yl]-3,5-dihydro-2H-1,4-benzoxazepine] and `C[C@H]1COc2cc(-c3noc(C(F)(F)F)n3)ccc2CN1S(=O)(=O)C(C)(C)C` [Compound 34, (3S)-3-methyl-4-(2-methylpropane-2-sulfonyl)-8-[5-(trifluoromethyl)-1,2,4-oxadiazol-3-yl]-3,5-dihydro-2H-1,4-benzoxazepine] fall in the same range of IC50: 200 to 500 nM for the first, 200 to 500 nM for the second.

`CC(=O)N1CCC(C)(C(=O)N2Cc3c(F)cc(-c4noc(C(F)(F)F)n4)cc3OC[C@@H]2C)CC1` [Compound 48, (S)-1-(4-(6-fluoro-3-methyl-8-(5-(trifluoromethyl)-1,2,4-oxadiazol-3-yl)-2,3,4,5-tetrahydrobenzo[f][1,4]oxazepine-4-carbonyl)-4-methylpiperidin-1-yl)ethan-1-one] and `COCC1(C(=O)N2Cc3c(F)cc(-c4noc(C(F)(F)F)n4)cc3OC[C@@H]2C)CC1` [Compound 31, (3S)-6-fluoro-4-{[1-(methoxymethyl)cyclopropyl]carbonyl}-3-methyl-8-[5-(trifluoromethyl)-1,2,4-oxadiazol-3-yl]-3,5-dihydro-2H-1,4-benzoxazepine] fall in the same range of IC50: 200 to 500 nM for the first, 200 to 500 nM for the second.

`CC1(C(=O)N2Cc3ccc(-c4noc(C(F)(F)F)n4)cc3OC[C@@H]2c2ccccc2)CCCOC1` (single isomer, unassigned) [Compound 13] and `CC1(C(=O)N2Cc3ccc(-c4nnc(C(F)F)o4)cc3OC[C@@H]2c2ccccc2)CCOCC1` [Compound 3, (S)-(8-(5-(difluoromethyl)-1,3,4-oxadiazol-2-yl)-3-phenyl-2,3-dihydrobenzo[f][1,4]oxazepin-4(5H)-yl)(4-methyltetrahydro-2H-pyran-4-yl)methanone] cannot be ordered by IC50: under 200 nM for the first, under 200 nM for the second.
